{"source": "patent US6177253A", "about": "“Screening methods for the identification of anti-HIV compounds employing a cyclosporine-specific monoclonal antibody that cross-reacts with HIV-1 p24” (priority 1998, dated 2001)", "assay_type_in_all_cases": "binding, BALB/c mice", "key": {"[1]": {"test_system": "H4 1.3", "test": "ELISA inhibition by singly modified Cs-derivatives, McAb H4 1.3", "settings": "group II; D-Lys^8 -Cs-BSA coating", "experimental": "(§1) A second ELISA Procedure used conjugates of D-Lys^8 -Cs-BSA and Thr^2 -Cs-BSA for coating (Queeniaux et al., 1987b). An indirect detection system consisting of rabbit anti-mouse Ig followed by alkaline phosphates-conjugated goat anti-rabbit IgG was performed as previously described (Queenlaux et al., 1987b).\n(§2) The binding of the 22 McAbs to these two Cs-BSA conjugates was also found to correlate well with their fine specificity patterns, as characterized with a set of 28-36 Cs derivatives. Typical ELISA curves showing McAb binding either to D-Lys^8 -Cs-BSA (panel A) or to Thr^2 -Ca-BSA (panel B) and inhibited by Cs or Cs derivatives are shown in FIGS. 8A-8B, D-Lys^8 -Cs-BSA was subsequently used for coating in the inhibition experiments, except for those McAbs binding selectively to Thr^2 -Cs-BSA (see Table 4 and FIGS. 7A-7C). An example of the binding of 26 Cs derivatives by McAbs belonging to each of the five specificity groups mentioned above is reported in Table 5. The results are expressed as the difference of IC50 (in log10) between the Cs derivatives and Cs. All Cs-derivatives used in this study were selected for having a conserved peptide ring conformation compared with CsA (as determined in NMR or X-ray diffraction)."}, "[2]": {"test_system": "G7 1.1", "test": "ELISA inhibition by singly modified Cs-derivatives, McAb G7 1.1", "settings": "group I; McAb binds selectively to Thr^2 -Cs-BSA coating", "experimental": "as §1, §2"}, "[3]": {"test_system": "B11 1.4", "test": "ELISA inhibition by singly modified Cs-derivatives, McAb B11 1.4", "settings": "group IV; D-Lys^8 -Cs-BSA coating", "experimental": "as §1, §2"}, "[4]": {"test_system": "C4 2.2", "test": "ELISA inhibition by singly modified Cs-derivatives, McAb C4 2.2", "settings": "group V; McAb binds selectively to Thr^2 -Cs-BSA coating", "experimental": "as §1, §2"}, "[5]": {"test_system": "H6 1.5", "test": "ELISA inhibition by singly modified Cs-derivatives, McAb H6 1.5", "settings": "group III; D-Lys^8 -Cs-BSA coating", "experimental": "as §1, §2"}}, "data": [{"smiles": "C/C=C/C[C@@H](C)[C@@H](O)[C@H]1C(=O)N[C@@H](CC)C(=O)N(C)[C@H](C)C(=O)N(C)[C@@H](CC(C)C)C(=O)N[C@@H](C(C)C)C(=O)N(C)[C@@H](CC(C)C)C(=O)N[C@@H](C)C(=O)N[C@H](C)C(=O)N(C)[C@@H](CC(C)C)C(=O)N(C)[C@@H](CC(C)C)C(=O)N(C)[C@@H](C(C)C)C(=O)N1C", "note": "[Sar^3 D-MeAla]", "values": [{"measurement": "log10 difference in the concentrations of Cs-derivatives and unmodified Cs required to achieve 50% inhibition in ELISA, McAb H4 1.3", "setting": "[1]", "value": 1.3, "unit": "log10"}, {"measurement": "log10 difference in the concentrations of Cs-derivatives and unmodified Cs required to achieve 50% inhibition in ELISA, McAb G7 1.1", "setting": "[2]", "value": 1.2, "unit": "log10"}, {"measurement": "log10 difference in the concentrations of Cs-derivatives and unmodified Cs required to achieve 50% inhibition in ELISA, McAb B11 1.4", "setting": "[3]", "value": "< 0.0", "unit": "log10"}, {"measurement": "log10 difference in the concentrations of Cs-derivatives and unmodified Cs required to achieve 50% inhibition in ELISA, McAb C4 2.2", "setting": "[4]", "value": 1.2, "unit": "log10"}, {"measurement": "log10 difference in the concentrations of Cs-derivatives and unmodified Cs required to achieve 50% inhibition in ELISA, McAb H6 1.5", "setting": "[5]", "value": 1.4, "unit": "log10"}]}, {"smiles": "C/C=C/C[C@@H](C)[C@@H](O)[C@H]1C(=O)N[C@@H](CO)C(=O)N(C)CC(=O)N(C)[C@@H](CC(C)C)C(=O)N[C@@H](C(C)C)C(=O)N(C)[C@@H](CC(C)C)C(=O)N[C@@H](C)C(=O)N[C@H](C)C(=O)N(C)[C@@H](CC(C)C)C(=O)N(C)[C@@H](CC(C)C)C(=O)N(C)[C@@H](C(C)C)C(=O)N1C", "note": "[Abu^2 Ser]", "values": [{"measurement": "log10 difference in the concentrations of Cs-derivatives and unmodified Cs required to achieve 50% inhibition in ELISA, McAb H4 1.3", "setting": "[1]", "value": 0.9, "unit": "log10"}, {"measurement": "log10 difference in the concentrations of Cs-derivatives and unmodified Cs required to achieve 50% inhibition in ELISA, McAb G7 1.1", "setting": "[2]", "value": "< 0.0", "unit": "log10"}, {"measurement": "log10 difference in the concentrations of Cs-derivatives and unmodified Cs required to achieve 50% inhibition in ELISA, McAb B11 1.4", "setting": "[3]", "value": 0.0, "unit": "log10"}, {"measurement": "log10 difference in the concentrations of Cs-derivatives and unmodified Cs required to achieve 50% inhibition in ELISA, McAb C4 2.2", "setting": "[4]", "value": 0.2, "unit": "log10"}, {"measurement": "log10 difference in the concentrations of Cs-derivatives and unmodified Cs required to achieve 50% inhibition in ELISA, McAb H6 1.5", "setting": "[5]", "value": 0.6, "unit": "log10"}]}, {"smiles": "C/C=C/C[C@@H](C)C[C@H]1C(=O)N[C@@H](CC)C(=O)N(C)CC(=O)N(C)[C@@H](CC(C)C)C(=O)N[C@@H](C(C)C)C(=O)N(C)[C@@H](CC(C)C)C(=O)N[C@@H](C)C(=O)N[C@H](C)C(=O)N(C)[C@@H](CC(C)C)C(=O)N(C)[C@@H](CC(C)C)C(=O)N(C)[C@@H](C(C)C)C(=O)N1C", "note": "[MeBint^1 3'desoxy]", "values": [{"measurement": "log10 difference in the concentrations of Cs-derivatives and unmodified Cs required to achieve 50% inhibition in ELISA, McAb H4 1.3", "setting": "[1]", "value": 1.2, "unit": "log10"}, {"measurement": "log10 difference in the concentrations of Cs-derivatives and unmodified Cs required to achieve 50% inhibition in ELISA, McAb G7 1.1", "setting": "[2]", "value": 0.6, "unit": "log10"}, {"measurement": "log10 difference in the concentrations of Cs-derivatives and unmodified Cs required to achieve 50% inhibition in ELISA, McAb B11 1.4", "setting": "[3]", "value": 0.4, "unit": "log10"}, {"measurement": "log10 difference in the concentrations of Cs-derivatives and unmodified Cs required to achieve 50% inhibition in ELISA, McAb C4 2.2", "setting": "[4]", "value": "< 0.0", "unit": "log10"}, {"measurement": "log10 difference in the concentrations of Cs-derivatives and unmodified Cs required to achieve 50% inhibition in ELISA, McAb H6 1.5", "setting": "[5]", "value": 0.0, "unit": "log10"}]}, {"smiles": "C/C=C/C[C@@H](C)[C@@H](O)[C@H]1C(=O)N[C@@H](CC)C(=O)N(C)CC(=O)N(C)[C@@H](CC(C)C)C(=O)N[C@@H](C(C)C)C(=O)N(C)[C@@H](CC(C)C)C(=O)N[C@@H](C)C(=O)N[C@H](CCCCNC(=O)OC(C)(C)C)C(=O)N(C)[C@@H](CC(C)C)C(=O)N(C)[C@@H](CC(C)C)C(=O)N(C)[C@@H](C(C)C)C(=O)N1C", "note": "[D-Ala^8 Boc-D-Lys]", "values": [{"measurement": "log10 difference in the concentrations of Cs-derivatives and unmodified Cs required to achieve 50% inhibition in ELISA, McAb H4 1.3", "setting": "[1]", "value": 0.6, "unit": "log10"}, {"measurement": "log10 difference in the concentrations of Cs-derivatives and unmodified Cs required to achieve 50% inhibition in ELISA, McAb G7 1.1", "setting": "[2]", "value": 2.0, "unit": "log10"}, {"measurement": "log10 difference in the concentrations of Cs-derivatives and unmodified Cs required to achieve 50% inhibition in ELISA, McAb B11 1.4", "setting": "[3]", "value": 0.3, "unit": "log10"}, {"measurement": "log10 difference in the concentrations of Cs-derivatives and unmodified Cs required to achieve 50% inhibition in ELISA, McAb C4 2.2", "setting": "[4]", "value": 1.2, "unit": "log10"}, {"measurement": "log10 difference in the concentrations of Cs-derivatives and unmodified Cs required to achieve 50% inhibition in ELISA, McAb H6 1.5", "setting": "[5]", "value": 0.0, "unit": "log10"}]}, {"smiles": "C/C=C/C[C@@H](C)[C@@H](O)[C@H]1C(=O)N[C@@H](C)C(=O)N(C)CC(=O)N(C)[C@@H](CC(C)C)C(=O)N[C@@H](C(C)C)C(=O)N(C)[C@@H](CC(C)C)C(=O)N[C@@H](C)C(=O)N[C@H](C)C(=O)N(C)[C@@H](CC(C)C)C(=O)N(C)[C@@H](CC(C)C)C(=O)N(C)[C@@H](C(C)C)C(=O)N1C", "note": "[Abu^2 Ala]", "values": [{"measurement": "log10 difference in the concentrations of Cs-derivatives and unmodified Cs required to achieve 50% inhibition in ELISA, McAb G7 1.1", "setting": "[2]", "value": 0.2, "unit": "log10"}, {"measurement": "log10 difference in the concentrations of Cs-derivatives and unmodified Cs required to achieve 50% inhibition in ELISA, McAb B11 1.4", "setting": "[3]", "value": 0.4, "unit": "log10"}, {"measurement": "log10 difference in the concentrations of Cs-derivatives and unmodified Cs required to achieve 50% inhibition in ELISA, McAb C4 2.2", "setting": "[4]", "value": 0.1, "unit": "log10"}, {"measurement": "log10 difference in the concentrations of Cs-derivatives and unmodified Cs required to achieve 50% inhibition in ELISA, McAb H6 1.5", "setting": "[5]", "value": 0.0, "unit": "log10"}]}]}
